The data set has as its system rodent lifetime carcinogenesis bioassay, tumor incidence TD50. In words: chronic cancer bioassays in animals – CPDB, compiled studies (AID 1745844).

Each structure is given as a SMILES string. The source made the active and inactive calls. How the calls were made is not given here.

As for `CN(C)NC(=O)CCC(=O)O`, the TD50 (as a rule, the dose at which the toxic effect under study appears in half of the subjects) (mouse, strain B6C3F1, females, in feed, site: any site (literature study), lesion: several types, types named in the paper, dosed 104 weeks, study length 105 weeks) was 56400 mg/kg/day (inactive); the TD50 (mouse, strain B6C3F1, females, in feed, site: liver, lesion: hepatocellular adenoma + hepatocellular carcinoma + neoplastic nodule, dosed 104 weeks, study length 105 weeks) is 6820 mg/kg/day; the TD50 (mouse, strain B6C3F1, females, in feed, site: lung, lesion: alveolar/bronchiolar adenoma + alveolar/bronchiolar carcinoma, dosed 104 weeks, study length 105 weeks) is 2920 mg/kg/day; the TD50 (mouse, strain B6C3F1, males, in feed, site: any site (literature study), lesion: several types, types named in the paper, dosed 104 weeks, study length 105 weeks) is 1500 mg/kg/day; the TD50 (mouse, strain B6C3F1, males, in feed, site: liver, lesion: hepatocellular adenoma + hepatocellular carcinoma + neoplastic nodule, dosed 104 weeks, study length 105 weeks) is 2450 mg/kg/day; the TD50 (mouse, strain B6C3F1, males, in feed, site: liver, lesion: hepatocellular adenoma + hepatocellular carcinoma, dosed 104 weeks, study length 105 weeks) is 2450 mg/kg/day. The TD50 was 2150 mg/kg/day (mouse, strain B6C3F1, males, in feed, site: liver, lesion: hepatocellular carcinoma, dosed 104 weeks, study length 105 weeks); 3400 mg/kg/day (mouse, strain B6C3F1, males, in feed, site: lung, lesion: alveolar/bronchiolar adenoma + alveolar/bronchiolar carcinoma, dosed 104 weeks, study length 105 weeks); 1240 mg/kg/day (mouse, strain Swiss albino, females, in drinking water, site: blood vessels, lesion: several types, types named in the paper, dosed 92 weeks, study length 92 weeks); 1370 mg/kg/day (mouse, strain Swiss albino, females, in drinking water, site: lung, lesion: several types, types named in the paper, dosed 92 weeks, study length 92 weeks); 880 mg/kg/day (mouse, strain Swiss albino, males, in drinking water, site: blood vessels, lesion: several types, types named in the paper, dosed 81 weeks, study length 81 weeks); 10900 mg/kg/day (mouse, strain Swiss albino, males, in drinking water, site: kidney, lesion: adenoma, dosed 81 weeks, study length 81 weeks). In addition, the TD50 is, setting by setting: (mouse, strain Swiss albino, males, in drinking water, site: liver, lesion: hepatoma, dosed 81 weeks, study length 81 weeks) 38800 mg/kg/day (inactive); (mouse, strain Swiss albino, males, in drinking water, site: lung, lesion: several types, types named in the paper, dosed 81 weeks, study length 81 weeks) 1110 mg/kg/day; (rat, strain Fischer 344, females, in feed, site: any site (literature study), lesion: several types, types named in the paper, dosed 104 weeks, study length 105 weeks) 3450 mg/kg/day; (rat, strain Fischer 344, females, in feed, site: liver, lesion: hepatocellular adenoma + hepatocellular carcinoma + neoplastic nodule, dosed 104 weeks, study length 105 weeks) 9640 mg/kg/day; (rat, strain Fischer 344, females, in feed, site: lung, lesion: alveolar/bronchiolar adenoma, dosed 104 weeks, study length 105 weeks) 4890 mg/kg/day; (rat, strain Fischer 344, females, in feed, site: uterus + uterus, endometrium, lesion: leiomyosarcoma + adenocarcinoma, NOS, dosed 104 weeks, study length 105 weeks) 1840 mg/kg/day. In addition, the TD50 was 2500 mg/kg/day (rat, strain Fischer 344, females, in feed, site: uterus, endometrium, lesion: adenocarcinoma, NOS, dosed 104 weeks, study length 105 weeks) and 5270 mg/kg/day (rat, strain Fischer 344, females, in feed, site: uterus, lesion: leiomyosarcoma, dosed 104 weeks, study length 105 weeks). Moreover, under “rat, strain Fischer 344, males, in feed, site: any site (literature study), lesion: several types, types named in the paper, dosed 104 weeks, study length 105 weeks”, the carcinogen call is “negative (inactive)”.
As for `O=[N+]([O-])OCC(CO[N+](=O)[O-])O[N+](=O)[O-]`, the TD50 (rat, strain Charles River CD (Sprague-Dawley), females, in feed, site: liver, lesion: several types, types named in the paper, dosed 104 weeks, study length 104 weeks) was 329 mg/kg/day; the TD50 (rat, strain Charles River CD (Sprague-Dawley), males, in feed, site: liver, lesion: several types, types named in the paper, dosed 104 weeks, study length 104 weeks) was 221 mg/kg/day; the TD50 (rat, strain Charles River CD (Sprague-Dawley), males, in feed, site: testis, lesion: interstitial-cell tumor, dosed 104 weeks, study length 104 weeks) was 405 mg/kg/day; the TD50 (rat, strain Fischer 344, males, in feed, site: liver, lesion: cholangiocarcinoma, dosed 70 weeks, study length 70 weeks) is 681 mg/kg/day; the TD50 (rat, strain Fischer 344, males, in feed, site: liver, lesion: cholangiocarcinoma, dosed 76 weeks, study length 76 weeks) came to 509 mg/kg/day; the TD50 (rat, strain Fischer 344, males, in feed, site: liver, lesion: cholangioma, dosed 76 weeks, study length 76 weeks) was 211 mg/kg/day. The TD50 (rat, strain Fischer 344, males, in feed, site: liver, lesion: hepatocellular adenoma, dosed 70 weeks, study length 70 weeks) is 179 mg/kg/day; the TD50 (rat, strain Fischer 344, males, in feed, site: liver, lesion: hepatocellular adenoma, dosed 76 weeks, study length 76 weeks) is 106 mg/kg/day; the TD50 (rat, strain Fischer 344, males, in feed, site: liver, lesion: several types, types named in the paper, dosed 70 weeks, study length 70 weeks) is 113 mg/kg/day. Besides, the carcinogen call (rat, strain Fischer 344, males, in feed, site: liver, lesion: several types, types named in the paper, dosed 76 weeks, study length 76 weeks) was “positive”.
As to `COc1ccc(O)cc1`, the TD50 reads like this: (rat, strain F344/DuCrj, females, in feed, site: forestomach, lesion: squamous-cell carcinoma, dosed 104 weeks, study length 104 weeks) 3070 mg/kg/day; (rat, strain F344/DuCrj, females, in feed, site: forestomach, lesion: squamous-cell papilloma, dosed 104 weeks, study length 104 weeks) 2580 mg/kg/day; (rat, strain F344/DuCrj, males, in feed, site: forestomach, lesion: papilloma, dosed 51 weeks, study length 52 weeks) 1460 mg/kg/day; (rat, strain F344/DuCrj, males, in feed, site: forestomach, lesion: squamous-cell carcinoma, dosed 104 weeks, study length 104 weeks) 377 mg/kg/day; (rat, strain F344/DuCrj, males, in feed, site: forestomach, lesion: squamous-cell papilloma, dosed 104 weeks, study length 104 weeks) 832 mg/kg/day; (rat, strain F344/DuCrj, males, in feed, site: stomach, glandular, lesion: adenoma, dosed 104 weeks, study length 104 weeks) 16200 mg/kg/day. Further, the carcinogen call runs as follows: (rat, strain F344/DuCrj, males, in feed, site: forestomach, lesion: one or several types, types not named, dosed 51 weeks, study length 52 weeks) “negative (inactive)”; (rat, strain F344/DuCrj, males, in feed, site: stomach, glandular, lesion: one or several types, types not named, dosed 51 weeks, study length 52 weeks) “negative (inactive)”.
`COC(=O)C(C)(C)Oc1ccc(-c2ccc(Cl)cc2)cc1`: the TD50 (mouse, strain AP Alderly Park, females, in feed, site: liver, lesion: hepatocellular adenoma, dosed 78 weeks, study length 78 weeks) is 2.27 mg/kg/day; the TD50 (mouse, strain AP Alderly Park, females, in feed, site: liver, lesion: hepatocellular carcinoma, dosed 78 weeks, study length 78 weeks) is 8.3 mg/kg/day; the TD50 (mouse, strain AP Alderly Park, females, in feed, site: liver, lesion: several types, types named in the paper, dosed 52 weeks, study length 78 weeks) amounted to 25 mg/kg/day; the TD50 (mouse, strain AP Alderly Park, females, several routes, site: liver, lesion: hepatocellular adenoma, dosed 78 weeks, study length 78 weeks) was 48.5 mg/kg/day; the TD50 (mouse, strain AP Alderly Park, females, several routes, site: liver, lesion: hepatocellular carcinoma, dosed 78 weeks, study length 78 weeks) was 13.4 mg/kg/day; the TD50 (mouse, strain AP Alderly Park, females, several routes, site: lung, lesion: adenoma, dosed 78 weeks, study length 78 weeks) is 890 mg/kg/day. In addition, the TD50 (mouse, strain AP Alderly Park, males, in feed, site: liver, lesion: hepatocellular adenoma, dosed 78 weeks, study length 78 weeks) is 2.75 mg/kg/day; the TD50 (mouse, strain AP Alderly Park, males, in feed, site: liver, lesion: hepatocellular carcinoma, dosed 78 weeks, study length 78 weeks) is 0.858 mg/kg/day; the TD50 (mouse, strain AP Alderly Park, males, in feed, site: liver, lesion: several types, types named in the paper, dosed 26 weeks, study length 78 weeks) is 2.08 mg/kg/day; the TD50 (mouse, strain AP Alderly Park, males, in feed, site: liver, lesion: several types, types named in the paper, dosed 52 weeks, study length 78 weeks) was 5.94 mg/kg/day; the TD50 (mouse, strain AP Alderly Park, males, several routes, site: liver, lesion: hepatocellular carcinoma, dosed 78 weeks, study length 78 weeks) is 16.8 mg/kg/day; the TD50 (rat, strain Alpk:APfSD, females, in feed, site: liver, lesion: hepatocellular adenoma, dosed 104 weeks, study length 104 weeks) turned out to be 460 mg/kg/day. Besides, the TD50 is 5.88 mg/kg/day (rat, strain Alpk:APfSD, females, in feed, site: liver, lesion: hepatocellular carcinoma, dosed 104 weeks, study length 104 weeks); 17.4 mg/kg/day (rat, strain Alpk:APfSD, males, in feed, site: liver, lesion: hepatocellular adenoma, dosed 104 weeks, study length 104 weeks); 2.87 mg/kg/day (rat, strain Alpk:APfSD, males, in feed, site: liver, lesion: hepatocellular carcinoma, dosed 104 weeks, study length 104 weeks); 1.44 mg/kg/day (rat, strain Alpk:APfSD, males, in feed, site: pancreas, exocrine, lesion: adenoma, dosed 52 weeks, study length 104 weeks); 18.5 mg/kg/day (rat, strain Alpk:APfSD, males, in feed, site: pancreas, exocrine, lesion: adenoma, dosed 104 weeks, study length 104 weeks); 2.93 mg/kg/day (rat, strain Alpk:APfSD, males, in feed, site: testis, lesion: Leydig-cell adenoma, dosed 104 weeks, study length 104 weeks). For the same compound, the carcinogen call (rat, strain Fischer 344, males, in feed, site: liver, lesion: hepatocellular carcinoma, dosed 75 weeks, study length 75 weeks) is “positive”.
Take `Cc1cc2c(nc1N)[nH]c1ccccc12`: the TD50 (mouse, strain CDF1, females, in feed, site: blood vessels, lesion: hemangioendothelial sarcoma, dosed 84 weeks, study length 84 weeks) is 38.6 mg/kg/day; the TD50 (mouse, strain CDF1, females, in feed, site: liver, lesion: hepatocellular adenoma, dosed 84 weeks, study length 84 weeks) turned out to be 118 mg/kg/day; the TD50 (mouse, strain CDF1, females, in feed, site: liver, lesion: hepatocellular carcinoma, dosed 84 weeks, study length 84 weeks) turned out to be 98.9 mg/kg/day; the TD50 (mouse, strain CDF1, females, in feed, site: liver, lesion: several types, types named in the paper, dosed 84 weeks, study length 84 weeks) is 38.6 mg/kg/day; the TD50 (mouse, strain CDF1, females, in feed, site: lung, lesion: adenoma, dosed 84 weeks, study length 84 weeks) was determined as 1840 mg/kg/day; the TD50 (mouse, strain CDF1, males, in feed, site: blood vessels, lesion: hemangioendothelial sarcoma, dosed 73 weeks, study length 73 weeks) was 15.6 mg/kg/day. Also, the TD50 (mouse, strain CDF1, males, in feed, site: liver, lesion: hepatocellular adenoma, dosed 73 weeks, study length 73 weeks) is 90.9 mg/kg/day; the TD50 (mouse, strain CDF1, males, in feed, site: liver, lesion: hepatocellular carcinoma, dosed 73 weeks, study length 73 weeks) is 127 mg/kg/day; the TD50 (mouse, strain CDF1, males, in feed, site: liver, lesion: several types, types named in the paper, dosed 73 weeks, study length 73 weeks) was 43.5 mg/kg/day; the TD50 (mouse, strain CDF1, males, in feed, site: lung, lesion: adenoma, dosed 73 weeks, study length 73 weeks) is 1180 mg/kg/day; the TD50 (rat, strain F344/DuCrj, males, in feed, site: liver, lesion: hepatocellular carcinoma, dosed 100 weeks, study length 100 weeks) was 11.7 mg/kg/day; the TD50 (rat, strain F344/DuCrj, males, in feed, site: pancreas, lesion: acinar-cell adenoma, dosed 100 weeks, study length 100 weeks) is 8.7 mg/kg/day. For the same compound, the TD50 by setting is: (rat, strain F344/DuCrj, males, in feed, site: pancreatic islets, lesion: islet-cell adenoma, dosed 100 weeks, study length 100 weeks) 48.1 mg/kg/day; (rat, strain F344/DuCrj, males, in feed, site: salivary gland, lesion: fibrosarcoma, dosed 100 weeks, study length 100 weeks) 73.5 mg/kg/day; (rat, strain F344/DuCrj, males, in feed, site: subcutaneous tissue, lesion: fibroma, dosed 100 weeks, study length 100 weeks) 6.7 mg/kg/day; (rat, strain F344/DuCrj, males, in feed, site: urinary bladder, lesion: transitional-cell carcinoma, dosed 100 weeks, study length 100 weeks) 28.6 mg/kg/day.
